According to patent US10414811B2, “Protease-resistant lipidated GLP-1 analogs” (MEDIMMUNE LIMITED, priority 2015, dated 2019):
Read-outs that look alike come from different tables or passages of the source. Numbered stars: 1 amine (or outer) side, 2 acyl side, 3 side chain; on linkers, the order of the positions; unused ones are H or OH. Square brackets hold non-standard residues; d marks the D form. Side chains are listed from the residue outwards. Peptide text beside a SMILES is read from it. * marks the point of attachment. γGlu = O=C(O)[C@H](CCC(=O)[*:2])N[*:1]; Palmitoyl = CCCCCCCCCCCCCCCC(=O)*; αMeF = C[C@](N)(Cc1ccccc1)C(=O)O; αMeK = C[C@](N)(CCCCN)C(=O)O; αMeS = C[C@](N)(CO)C(=O)O; Aib = CC(C)(N)C(=O)O

Key:
Format in all cases: cell-based
[1] = biological target: T1, human glucose-dependent insulinotropic peptide receptor (GIPR) (Homo sapiens, UniProt P48546); assay: cAMP assay, human GIPR cells; conditions: cAMP assay
T1 construct: expressed in transfected cells
T1 sequence (P48546 22-466): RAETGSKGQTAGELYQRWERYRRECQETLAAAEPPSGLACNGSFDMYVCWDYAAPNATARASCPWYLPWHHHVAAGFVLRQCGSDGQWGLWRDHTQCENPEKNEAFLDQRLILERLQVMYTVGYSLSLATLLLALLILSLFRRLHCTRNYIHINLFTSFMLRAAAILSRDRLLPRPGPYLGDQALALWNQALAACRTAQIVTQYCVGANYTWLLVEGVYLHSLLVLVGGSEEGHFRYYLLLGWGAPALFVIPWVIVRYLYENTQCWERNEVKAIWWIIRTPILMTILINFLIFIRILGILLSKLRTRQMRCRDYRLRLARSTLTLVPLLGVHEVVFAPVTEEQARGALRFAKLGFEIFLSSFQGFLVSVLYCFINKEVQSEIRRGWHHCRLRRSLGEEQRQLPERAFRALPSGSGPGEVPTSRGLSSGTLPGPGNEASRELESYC
How it was run: (§1)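 Peptide-stimulated cAMP measured by two-step HTRF after a 30 min room-temperature incubation with receptor-expressing cells (hGLP-1R, hGIPR at 1×10^5 cells/ml; hGCGR at 2×10^5 cells/ml). Duplicate dilutions; EC50 from 4-parameter logistic fit of % Delta F.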

[2] = biological target: T2, human GLP-1 receptor (GLP-1R) (Homo sapiens, UniProt P43220); assay: cAMP assay, human GLP-1R cells
T2 construct: expressed in transfected cells
How it was run: as §1

[3] = biological target: T3, GLP-1R (INS1e assay) (Rattus norvegicus, UniProt P32301); assay: INS1e assay, cAMP activity at GLP-1R; conditions: mono-lipidated peptides
T3 construct: endogenous in cells; host or cells: INS-1E cells
T3 sequence (P32301 22-463): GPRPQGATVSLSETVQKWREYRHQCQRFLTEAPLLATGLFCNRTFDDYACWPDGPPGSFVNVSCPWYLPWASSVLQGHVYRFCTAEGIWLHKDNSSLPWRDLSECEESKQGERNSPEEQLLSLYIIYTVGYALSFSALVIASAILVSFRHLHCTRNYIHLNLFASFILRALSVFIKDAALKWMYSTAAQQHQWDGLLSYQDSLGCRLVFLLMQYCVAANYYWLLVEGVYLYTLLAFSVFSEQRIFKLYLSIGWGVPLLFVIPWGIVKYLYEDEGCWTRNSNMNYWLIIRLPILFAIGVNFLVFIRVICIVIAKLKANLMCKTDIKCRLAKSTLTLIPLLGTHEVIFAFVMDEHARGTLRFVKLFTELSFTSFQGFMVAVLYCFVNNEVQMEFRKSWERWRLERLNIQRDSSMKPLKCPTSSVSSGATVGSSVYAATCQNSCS
How it was run: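 It pairs cAMP-d2 acceptor with anti-cAMP cryptate donor, both prepared 1/20 in conjugate/lysis buffer, applied as a two-step protocol.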

[4] = biological target: T4, human glucagon receptor (GCGR) (Homo sapiens, UniProt P47871); assay: cAMP assay, human GCGR cells; conditions: cAMP assay
T4 construct: expressed in transfected cells
How it was run: as §1

[5] = first determination (n1), read-out: Primary assay EC50 GIP-R (n1)
[6] = second determination (n2), read-out: Primary assay EC50 GIP-R (n2)
[7] = cAMP assay, first determination (n1), read-out: Primary assay EC50 GLP-1R n1
[8] = cAMP assay, second determination (n2), read-out: Primary assay EC50 GLP-1R n2
[9] = mean of n1 and n2, read-out: Mean pM GLP-1R
[10] = mean of n1 and n2, read-out: INS1e assay EC50 Mean pM GLP-1R
[11] = replicate n1, read-out: INS1e assay EC50 GLP-1R n1
[12] = replicate n2, read-out: INS1e assay EC50 GLP-1R n2
[13] = first determination (n1), read-out: Primary assay EC50 Gluc-R (n1)
[14] = second determination (n2), read-out: Primary assay EC50 Gluc-R (n2)

T4 sequence (P47871 26-477): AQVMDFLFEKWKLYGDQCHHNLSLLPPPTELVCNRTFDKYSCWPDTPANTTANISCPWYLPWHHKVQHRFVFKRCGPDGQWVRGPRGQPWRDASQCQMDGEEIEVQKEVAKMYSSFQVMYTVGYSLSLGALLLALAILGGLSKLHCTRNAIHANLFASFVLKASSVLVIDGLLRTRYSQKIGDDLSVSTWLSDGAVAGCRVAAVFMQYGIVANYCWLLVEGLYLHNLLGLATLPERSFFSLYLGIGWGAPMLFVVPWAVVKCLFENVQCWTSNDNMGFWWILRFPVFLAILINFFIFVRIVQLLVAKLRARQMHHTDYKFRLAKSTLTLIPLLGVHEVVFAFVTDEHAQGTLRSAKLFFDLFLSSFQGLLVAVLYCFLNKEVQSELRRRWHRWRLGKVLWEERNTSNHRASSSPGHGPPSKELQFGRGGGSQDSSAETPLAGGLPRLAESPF
T2 sequence (P43220 24-463): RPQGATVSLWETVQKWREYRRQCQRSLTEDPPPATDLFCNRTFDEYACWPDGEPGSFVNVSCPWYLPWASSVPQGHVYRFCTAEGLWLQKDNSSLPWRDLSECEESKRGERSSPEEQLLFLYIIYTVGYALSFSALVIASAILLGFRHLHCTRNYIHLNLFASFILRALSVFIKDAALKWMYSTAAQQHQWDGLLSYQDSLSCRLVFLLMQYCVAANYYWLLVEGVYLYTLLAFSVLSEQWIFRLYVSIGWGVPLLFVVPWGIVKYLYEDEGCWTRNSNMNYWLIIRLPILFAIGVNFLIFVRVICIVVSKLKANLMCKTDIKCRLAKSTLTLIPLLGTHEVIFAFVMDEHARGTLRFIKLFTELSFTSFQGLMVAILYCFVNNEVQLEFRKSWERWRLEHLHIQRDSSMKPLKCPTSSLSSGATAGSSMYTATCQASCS

| Compound | EC50 [1, 5] | EC50 [1, 6] | EC50 [2, 7] | EC50 [2, 8] | EC50 [2, 9] | EC50 [3, 10] | EC50 [3, 11] | EC50 [3, 12] | EC50 [4, 13] | EC50 [4, 14] |
| --- | --- | --- | --- | --- | --- | --- | --- | --- | --- | --- |
| CC[C@H](C)[C@H](NC(=O)[C@](C)(Cc1ccccc1)NC(=O)[C@H](CCC(=O)O)NC(=O)[C@H](CCC(=O)O)NC(=O)[C@H](C)NC(=O)[C@H](C)NC(=O)[C@H](CCC(=O)O)NC(=O)CNC(=O)[C@H](CCC(=O)O)NC(=O)[C@H](CC(C)C)NC(=O)[C@](C)(Cc1ccccc1)NC(=O)[C@H](CO)NC(=O)[C@](C)(CO)NC(=O)[C@@H](NC(=O)[C@H](CC(=O)O)NC(=O)[C@H](CO)NC(=O)[C@@H](NC(=O)[C@](C)(Cc1ccccc1)NC(=O)[C@H](CO)NC(=O)CNC(=O)[C@H](CCC(=O)O)NC(=O)C(C)(C)NC(=O)[C@@H](N)Cc1c[nH]cn1)[C@@H](C)O)C(C)C)C(=O)N[C@@H](C)C(=O)N[C@@](C)(Cc1ccccc1)C(=O)N[C@H](C(=O)N[C@H](C(=O)N[C@@](C)(CCCCN)C(=O)NCC(=O)NCC(N)=O)C(C)C)C(C)C [compound 42] (H-H[Aib]EGS[αMeF]TSDV[αMeS]S[αMeF]LEGEAAEE[αMeF]IA[αMeF]VV[αMeK]GG-NH2) | ≥ 31 nM | ≥ 31 nM | 6.9 pM | 11 pM | 8.7 pM | 187 pM | 207 pM | 167 pM | ≥ 31 nM | ≥ 31 nM |
| CCCCCCCCCCCCCCCC(=O)N[C@@H](CCC(=O)NCCCC[C@H](NC(=O)[C@H](CO)NC(=O)[C@@H](NC(=O)[C@](C)(Cc1ccccc1)NC(=O)[C@H](CO)NC(=O)CNC(=O)[C@H](CCC(=O)O)NC(=O)C(C)(C)NC(=O)[C@@H](N)Cc1c[nH]cn1)[C@@H](C)O)C(=O)N[C@H](C(=O)N[C@@](C)(CO)C(=O)N[C@@H](CO)C(=O)N[C@@](C)(Cc1ccccc1)C(=O)N[C@@H](CC(C)C)C(=O)N[C@@H](CCC(=O)O)C(=O)NCC(=O)N[C@@H](CCC(=O)O)C(=O)N[C@@H](C)C(=O)N[C@@H](C)C(=O)N[C@@](C)(CCCCN)C(=O)N[C@@H](CCC(=O)O)C(=O)N[C@@](C)(Cc1ccccc1)C(=O)N[C@H](C(=O)N[C@@H](C)C(=O)N[C@@](C)(Cc1ccccc1)C(=O)N[C@H](C(=O)N[C@H](C(=O)N[C@@](C)(CCCCN)C(=O)NCC(=O)NCC(N)=O)C(C)C)C(C)C)[C@@H](C)CC)C(C)C)C(=O)O [compound 91] (H-H[Aib]EGS[αMeF]TSK([γGlu-Palmitoyl])V[αMeS]S[αMeF]LEGEAA[αMeK]E[αMeF]IA[αMeF]VV[αMeK]GG-NH2) | ≥ 28 nM | ≥ 28 nM | 21 pM | 27 pM | 24 pM | 2720 pM | 1930 pM | 3500 pM | ≥ 28 nM | ≥ 28 nM |

Results, then the compound that gave them:

| EC50 [1, 5] | EC50 [1, 6] | EC50 [2, 7] | EC50 [2, 8] | EC50 [2, 9] | EC50 [3, 10] | EC50 [3, 11] | EC50 [3, 12] | EC50 [4, 13] | EC50 [4, 14] | Compound |
| --- | --- | --- | --- | --- | --- | --- | --- | --- | --- | --- |
| ≥ 28 nM | ≥ 28 nM | 1.3 pM | 1.7 pM | 1.5 pM | 65 pM | 45.3 pM | 84.5 pM | ≥ 28 nM | ≥ 28 nM | CCCCCCCCCCCCCCCC(=O)N[C@@H](CCC(=O)NCCCC[C@H](NC(=O)[C@](C)(Cc1ccccc1)NC(=O)[C@H](CO)NC(=O)[C@](C)(CO)NC(=O)[C@@H](NC(=O)[C@H](CC(=O)O)NC(=O)[C@H](CO)NC(=O)[C@@H](NC(=O)[C@](C)(Cc1ccccc1)NC(=O)[C@H](CO)NC(=O)CNC(=O)[C@H](CCC(=O)O)NC(=O)C(C)(C)NC(=O)[C@@H](N)Cc1c[nH]cn1)[C@@H](C)O)C(C)C)C(=O)N[C@@H](CCC(=O)O)C(=O)NCC(=O)N[C@@H](CCC(=O)O)C(=O)N[C@@H](C)C(=O)N[C@@H](C)C(=O)N[C@@](C)(CCCCN)C(=O)N[C@@H](CCC(=O)O)C(=O)N[C@@](C)(Cc1ccccc1)C(=O)N[C@H](C(=O)N[C@@H](C)C(=O)N[C@@](C)(Cc1ccccc1)C(=O)N[C@H](C(=O)N[C@H](C(=O)N[C@@](C)(CCCCN)C(=O)NCC(=O)NCC(N)=O)C(C)C)C(C)C)[C@@H](C)CC)C(=O)O [compound 86] (H-H[Aib]EGS[αMeF]TSDV[αMeS]S[αMeF]K([γGlu-Palmitoyl])EGEAA[αMeK]E[αMeF]IA[αMeF]VV[αMeK]GG-NH2) |
| ≥ 27 nM | ≥ 27 nM | 2.5 pM | 1.2 pM | 1.9 pM | 128 pM | 81.7 pM | 175 pM | ≥ 27 nM | ≥ 27 nM | CCCCCCCCCCCC(=O)NCCOCCOCC(=O)NCCOCCOCC(=O)NCCCC[C@H](NC(=O)[C@@H](NC(=O)[C@@H](NC(=O)[C@](C)(Cc1ccccc1)NC(=O)[C@H](C)NC(=O)[C@@H](NC(=O)[C@](C)(Cc1ccccc1)NC(=O)[C@H](CCC(=O)O)NC(=O)[C@](C)(CCCCN)NC(=O)[C@H](C)NC(=O)[C@H](C)NC(=O)[C@H](CCC(=O)O)NC(=O)CNC(=O)[C@H](CCC(=O)O)NC(=O)[C@H](CC(C)C)NC(=O)[C@](C)(Cc1ccccc1)NC(=O)[C@H](CO)NC(=O)[C@](C)(CO)NC(=O)[C@@H](NC(=O)[C@H](CC(=O)O)NC(=O)[C@H](CO)NC(=O)[C@@H](NC(=O)[C@](C)(Cc1ccccc1)NC(=O)[C@H](CO)NC(=O)CNC(=O)[C@H](CCC(=O)O)NC(=O)C(C)(C)NC(=O)[C@@H](N)Cc1c[nH]cn1)[C@@H](C)O)C(C)C)[C@@H](C)CC)C(C)C)C(C)C)C(=O)NCC(=O)NCC(N)=O [compound 171] |
| ≥ 26 nM | ≥ 26 nM | 2.8 pM | 2.3 pM | 2.5 pM | 25 pM | 32.3 pM | 17.1 pM | ≥ 26 nM | ≥ 26 nM | CCCCCCCCCCCCCCCCCC(=O)NCCOCCOCC(=O)NCCOCCOCC(=O)NCCOCCOCC(=O)NCCCC[C@H](NC(=O)[C@H](C)NC(=O)[C@H](C)NC(=O)[C@H](CCC(=O)O)NC(=O)CNC(=O)[C@H](CCC(=O)O)NC(=O)[C@H](CC(C)C)NC(=O)[C@](C)(Cc1ccccc1)NC(=O)[C@H](CO)NC(=O)[C@](C)(CO)NC(=O)[C@@H](NC(=O)[C@H](CC(=O)O)NC(=O)[C@H](CO)NC(=O)[C@@H](NC(=O)[C@](C)(Cc1ccccc1)NC(=O)[C@H](CO)NC(=O)CNC(=O)[C@H](CCC(=O)O)NC(=O)C(C)(C)NC(=O)[C@@H](N)Cc1c[nH]cn1)[C@@H](C)O)C(C)C)C(=O)N[C@@H](CCC(=O)O)C(=O)N[C@@](C)(Cc1ccccc1)C(=O)N[C@H](C(=O)N[C@@H](C)C(=O)N[C@@](C)(Cc1ccccc1)C(=O)N[C@H](C(=O)N[C@H](C(=O)N[C@@](C)(CCCCN)C(=O)NCC(=O)NCC(N)=O)C(C)C)C(C)C)[C@@H](C)CC [compound 154] |
